Data as given in PMC6084004 (2017).

Row | SMILES | melting point
1 | OC[C@H]1O[C@@H](n2c3ccc(Cl)cc3c3c(-c4ccoc4)ncnc32)[C@H](F)[C@@H]1O | 184 to 186 °C
2 | OC[C@H]1O[C@@H](n2c3ccc(Cl)cc3c3c(-c4ccsc4)ncnc32)[C@H](F)[C@@H]1O | 221 to 222 °C
3 | Cc1ncnc2c1c1cc(Cl)ccc1n2[C@@H]1O[C@H](CO)[C@@H](O)[C@@H]1O | 233 to 235 °C
4 | OC[C@H]1O[C@@H](n2c3ccc(Cl)cc3c3c(-c4ccccc4)ncnc32)[C@@H](F)[C@@H]1O | 214 to 216 °C
5 | OC[C@H]1O[C@@H](n2c3ccc(Cl)cc3c3c(-c4ccoc4)ncnc32)[C@@H](O)[C@@H]1O | 186 to 188 °C
6 | OC[C@H]1O[C@@H](n2c3ccc(Cl)cc3c3c(-c4cccs4)ncnc32)[C@@H](O)[C@@H]1O | 192 to 194 °C
7 | Nc1ncnc2c1c1cc(Cl)ccc1n2[C@@H]1O[C@H](CO)[C@@H](O)[C@@H]1O | 298 to 301 °C
8 | CSc1ncnc2c1c1cc(Cl)ccc1n2[C@@H]1O[C@H](CO)[C@@H](O)[C@@H]1F | 230 to 231 °C
9 | OC[C@H]1O[C@@H](n2c3ccc(Cl)cc3c3c(-c4ccccc4)ncnc32)[C@H](F)[C@@H]1O | 192 to 193 °C
10 | OC[C@H]1O[C@@H](n2c3ccc(Cl)cc3c3c(-c4ccsc4)ncnc32)[C@@H](F)[C@@H]1O | 240 to 241 °C
11 | CSc1ncnc2c1c1cc(Cl)ccc1n2[C@@H]1O[C@H](CO)[C@@H](O)[C@H]1F | 205 to 209 °C
12 | Cc1ncnc2c1c1cc(Cl)ccc1n2[C@@H]1O[C@H](CO)[C@@H](O)[C@@H]1F | 211 to 216 °C
13 | OC[C@H]1O[C@@H](n2c3ccc(Cl)cc3c3c(-c4ccco4)ncnc32)[C@@H](O)[C@@H]1O | 241 to 243 °C
14 | OC[C@H]1O[C@@H](n2c3ccc(Cl)cc3c3c(-c4ccsc4)ncnc32)[C@@H](O)[C@@H]1O | 207 to 209 °C
15 | OC[C@H]1O[C@@H](n2c3ccc(Cl)cc3c3c(-c4ccoc4)ncnc32)[C@@H](F)[C@@H]1O | 208 to 214 °C
16 | CSc1ncnc2c1c1cc(Cl)ccc1n2[C@@H]1O[C@H](CO)[C@@H](O)[C@@H]1O | 181 to 183 °C
17 | Nc1ncnc2c1c1cc(Cl)ccc1n2[C@@H]1O[C@H](CO)[C@@H](O)[C@@H]1F | 267 to 272 °C
18 | OC[C@H]1O[C@@H](n2c3ccc(Cl)cc3c3c(-c4cccs4)ncnc32)[C@@H](F)[C@@H]1O | 225 to 227 °C
19 | OC[C@H]1O[C@@H](n2c3ccc(Cl)cc3c3c(-c4ccco4)ncnc32)[C@H](F)[C@@H]1O | 203 to 206 °C
20 | OC[C@H]1O[C@@H](n2c3ccc(Cl)cc3c3c(-c4cccs4)ncnc32)[C@H](F)[C@@H]1O | 206 to 211 °C
21 | Nc1ncnc2c1c1cc(Cl)ccc1n2[C@@H]1O[C@H](CO)[C@@H](O)[C@H]1F | 275 to 278 °C
22 | OC[C@H]1O[C@@H](n2c3ccc(Cl)cc3c3c(-c4ccccc4)ncnc32)[C@@H](O)[C@@H]1O | 183 to 185 °C
23 | COc1ncnc2c1c1cc(Cl)ccc1n2[C@@H]1O[C@H](CO)[C@@H](O)[C@@H]1F | 248 to 250 °C
24 | OC[C@H]1O[C@@H](n2c3ccc(Cl)cc3c3c(-c4ccco4)ncnc32)[C@@H](F)[C@@H]1O | 75 to 81 °C
25 | Cc1ncnc2c1c1cc(Cl)ccc1n2[C@@H]1O[C@H](CO)[C@@H](O)[C@H]1F | 247 to 251 °C
26 | COc1ncnc2c1c1cc(Cl)ccc1n2[C@@H]1O[C@H](CO)[C@@H](O)[C@@H]1O | 238 to 241 °C
